Test results as given in patent US20020119939A1, “Stable aqueous deoxyfructosazine solution” (priority 2000, published 2002).

Assay: study of the stability of aqueous deoxyfructosazine solutions (HPLC)
Type: physicochemical
Details: 1 mg/ml solution
Experimental: The study of the stability of aqueous deoxyfructosazine solutions was carried out according to the following protocol:
A deoxyfructosazine solution (1 mg/ml) is prepared using an aqueous 0.05M phosphoric acid solution. Samples of the solution are adjusted to pH 2, 3, 4, 5, 6, 7, 8 and 9 by addition of sodium hydroxide. The solutions thus obtained are stored in glass bottles protected from the light, at 4° C. (control solution), 25° C., 45° C. and 60° C. After 2, 7 and 15 days, the samples are diluted 5-fold with a 20 mM, pH 7 phosphate buffer and the stability is examined by high pressure liquid chromatography (HPLC).

% of decomposition product calculated relative to the total area of the peaks, Product A (pH 2, stored 15 days at 45° C.): 1.52%
% of decomposition product calculated relative to the total area of the peaks, Product A (pH 2, stored 15 days at 60° C.): 6.94%
% of decomposition product calculated relative to the total area of the peaks, Product B (pH 2, stored 15 days at 60° C.): 0.02%
% of decomposition product calculated relative to the total area of the peaks, Product A (pH 3, stored 15 days at 45° C.): 0.16%
% of decomposition product calculated relative to the total area of the peaks, Product A (pH 3, stored 15 days at 60° C.): 0.87%
% of decomposition product calculated relative to the total area of the peaks, Product B (pH 3, stored 15 days at 60° C.): 0.03%
% of decomposition product calculated relative to the total area of the peaks, Product A (pH 4, stored 15 days at 60° C.): 0.07%
% of decomposition product calculated relative to the total area of the peaks, Product B (pH 4, stored 15 days at 60° C.): 0.05%
% of decomposition product calculated relative to the total area of the peaks, Product B (pH 5, stored 15 days at 45° C.): 0.03%
% of decomposition product calculated relative to the total area of the peaks, Product B (pH 5, stored 15 days at 60° C.): 0.24%
% of decomposition product calculated relative to the total area of the peaks, Product B (pH 6, stored 15 days at 45° C.): 0.21%
% of decomposition product calculated relative to the total area of the peaks, Product B (pH 6, stored 15 days at 60° C.): 0.71%
% of decomposition product calculated relative to the total area of the peaks, Product B (pH 7, stored 15 days at 45° C.): 0.69%
% of decomposition product calculated relative to the total area of the peaks, Product B (pH 7, stored 15 days at 60° C.): 13.9%
% of decomposition product calculated relative to the total area of the peaks, Product B (pH 8, stored 15 days at 45° C.): 0.95%
% of decomposition product calculated relative to the total area of the peaks, Product B (pH 8, stored 15 days at 60° C.): 37.9%
% of decomposition product calculated relative to the total area of the peaks, Product B (pH 9, stored 15 days at 45° C.): 1.92%
% of decomposition product calculated relative to the total area of the peaks, Product B (pH 9, stored 15 days at 60° C.): 37.7%
Structure (SMILES): OC[C@@H](O)[C@@H](O)[C@H](O)c1cnc(C[C@H](O)[C@H](O)CO)cn1 [deoxyfructosazine, 2-((1R, 2S, 3R)1,2,3,4-tetrahydroxybutyl)-5-((2′S, 3′R)2′, 3′, 4′-trihydroxy-butylpyrazine)]
